According to the NIST ThermoML archive (doi:10.1021/je2009736):

Assays:
[1] = xn = mol fraction of the nth substance listed; conditions: 101 kPa, Liquid, Vibrating tube method
[2] = 298.15 K; 101.33 kPa; Liquid; Vibrating tube method

C[SiH]1O[SiH](C)O[SiH](C)O[SiH](C)O1 (stereo unspecified) [2,4,6,8-tetramethyl-1,3,5,7,2,4,6,8-tetroxatetrasilocane] + c1ccccc1
mass density [kg/m3], [1]
Conditions | 288.15 K | 298.15 K | 308.15 K
x1 = 0.0497 | 898.88 | 888.24 | 877.55
x1 = 0.0999 | 911.74 | 900.99 | 890.29
x1 = 0.1499 | 922.78 | 911.91 | 901.26
x1 = 0.1997 | 932.3 | 921.32 | 910.69
x1 = 0.2501 | 940.72 | 929.65 | 918.93
x1 = 0.3 | 948.04 | 936.87 | 926.1
x1 = 0.35 | 954.56 | 943.15 | 932.28
x1 = 0.3999 | 960.28 | 948.81 | 937.73
x1 = 0.4498 | 965.46 | 953.89 | 942.65
x1 = 0.4999 | 970.05 | 958.4 | 947.02
x1 = 0.5498 | 974.22 | 962.44 | 950.92
x1 = 0.5999 | 978.03 | 966.16 | 954.53
x1 = 0.6486 | 981.36 | 969.41 | 957.65
x1 = 0.7001 | 984.61 | 972.54 | 960.64
x1 = 0.7495 | 987.43 | 975.28 | 963.27
x1 = 0.8001 | 990.04 | 977.8 | 965.71
x1 = 0.8499 | 992.42 | 980.12 | 967.91
x1 = 0.8986 | 994.56 | 982.19 | 969.9

Cc1cccc(C)c1 [1,3-dimethylbenzene]
Conditions | mass density [kg/m3]
[2] | 859.86

C[SiH]1O[SiH](C)O[SiH](C)O[SiH](C)O1 (stereo unspecified) [2,4,6,8-tetramethyl-1,3,5,7,2,4,6,8-tetroxatetrasilocane] + Cc1ccccc1C
mass density [kg/m3], [1]
Conditions | 288.15 K | 298.15 K | 308.15 K
x1 = 0.0499 | 896.79 | 888.17 | 879.45
x1 = 0.1 | 908.22 | 899.3 | 890.28
x1 = 0.15 | 918.4 | 909.22 | 899.95
x1 = 0.2 | 927.56 | 918.11 | 908.59
x1 = 0.25 | 935.82 | 926.11 | 916.33
x1 = 0.2998 | 943.2 | 933.25 | 923.21
x1 = 0.3501 | 949.98 | 939.8 | 929.53
x1 = 0.3998 | 956.06 | 945.66 | 935.16
x1 = 0.4496 | 961.56 | 950.95 | 940.25
x1 = 0.4998 | 966.65 | 955.84 | 944.92
x1 = 0.5497 | 971.24 | 960.22 | 949.1
x1 = 0.5997 | 975.45 | 964.25 | 952.96
x1 = 0.6496 | 979.25 | 967.88 | 956.36
x1 = 0.7001 | 982.82 | 971.27 | 959.58
x1 = 0.7502 | 986.05 | 974.32 | 962.44
x1 = 0.7998 | 988.96 | 977.09 | 965.04
x1 = 0.848 | 991.61 | 979.54 | 967.33
x1 = 0.9002 | 994.23 | 982.02 | 969.65

C[SiH]1O[SiH](C)O[SiH](C)O[SiH](C)O1 (stereo unspecified) [2,4,6,8-tetramethyl-1,3,5,7,2,4,6,8-tetroxatetrasilocane] + Cc1ccccc1
mass density [kg/m3], [1]
Conditions | 288.15 K | 298.15 K | 308.15 K
x1 = 0.0499 | 886.6 | 877.08 | 867.53
x1 = 0.0999 | 899.94 | 890.19 | 880.4
x1 = 0.15 | 911.67 | 901.66 | 891.68
x1 = 0.2 | 921.98 | 911.75 | 901.57
x1 = 0.25 | 931.15 | 920.71 | 910.33
x1 = 0.3 | 939.31 | 928.7 | 918.15
x1 = 0.3502 | 946.71 | 935.91 | 925.11
x1 = 0.4 | 953.26 | 942.25 | 931.31
x1 = 0.4501 | 959.23 | 948.05 | 936.94
x1 = 0.5004 | 964.63 | 953.32 | 942.01
x1 = 0.5504 | 969.56 | 958.11 | 946.61
x1 = 0.5998 | 973.98 | 962.38 | 950.74
x1 = 0.6497 | 978.02 | 966.26 | 954.47
x1 = 0.6994 | 981.74 | 969.83 | 957.9
x1 = 0.7497 | 985.15 | 973.12 | 961.05
x1 = 0.8 | 988.34 | 976.19 | 963.99
x1 = 0.8494 | 991.18 | 978.9 | 966.61
x1 = 0.8995 | 993.85 | 981.45 | 969.04

C[SiH]1O[SiH](C)O[SiH](C)O[SiH](C)O1 (stereo unspecified) [2,4,6,8-tetramethyl-1,3,5,7,2,4,6,8-tetroxatetrasilocane] + Cc1ccc(C)cc1
mass density [kg/m3], [1]
Conditions | 288.15 K | 298.15 K | 308.15 K
x1 = 0.0499 | 879.33 | 870.42 | 861.48
x1 = 0.0999 | 892.03 | 882.82 | 873.61
x1 = 0.1501 | 903.51 | 893.96 | 884.48
x1 = 0.1999 | 913.85 | 904.11 | 894.33
x1 = 0.25 | 923.25 | 913.34 | 903.35
x1 = 0.2999 | 931.83 | 921.7 | 911.4
x1 = 0.3501 | 939.62 | 929.23 | 918.8
x1 = 0.4 | 946.73 | 936.18 | 925.53
x1 = 0.4502 | 953.29 | 942.54 | 931.67
x1 = 0.4997 | 959.21 | 948.26 | 937.19
x1 = 0.5493 | 964.63 | 953.54 | 942.24
x1 = 0.6001 | 969.79 | 958.45 | 947.03
x1 = 0.6501 | 974.4 | 962.93 | 951.37
x1 = 0.7002 | 978.67 | 967.02 | 955.31
x1 = 0.7472 | 982.39 | 970.62 | 958.76
x1 = 0.7998 | 986.27 | 974.32 | 962.3
x1 = 0.8492 | 989.69 | 977.56 | 965.38
x1 = 0.9002 | 992.92 | 980.61 | 968.28

Cc1ccccc1 [toluene]
Conditions | mass density [kg/m3]
[2] | 862.23

Cc1ccccc1C [1,2-dimethylbenzene]
Conditions | mass density [kg/m3]
[2] | 875.72

C[SiH]1O[SiH](C)O[SiH](C)O[SiH](C)O1 (stereo unspecified) [2,4,6,8-tetramethyl-1,3,5,7,2,4,6,8-tetroxatetrasilocane] + Cc1cccc(C)c1
mass density [kg/m3], [1]
Conditions | 288.15 K | 298.15 K | 308.15 K
x1 = 0.05 | 882 | 873.13 | 864.29
x1 = 0.1001 | 894.34 | 885.16 | 876.06
x1 = 0.15 | 905.42 | 896 | 886.6
x1 = 0.1999 | 915.45 | 905.8 | 896.12
x1 = 0.2498 | 924.55 | 914.65 | 904.73
x1 = 0.2999 | 932.94 | 922.8 | 912.66
x1 = 0.35 | 940.55 | 930.19 | 919.83
x1 = 0.3995 | 947.41 | 936.84 | 926.34
x1 = 0.4504 | 953.92 | 943.11 | 932.41
x1 = 0.5 | 959.71 | 948.69 | 937.79
x1 = 0.55 | 965.11 | 953.9 | 942.81
x1 = 0.5996 | 970.04 | 958.65 | 947.34
x1 = 0.65 | 974.69 | 963.1 | 951.62
x1 = 0.6995 | 978.87 | 967.14 | 955.47
x1 = 0.7495 | 982.81 | 970.92 | 959.07
x1 = 0.7996 | 986.48 | 974.42 | 962.42
x1 = 0.8498 | 989.84 | 977.65 | 965.47
x1 = 0.8994 | 992.98 | 980.64 | 968.32

C[SiH]1O[SiH](C)O[SiH](C)O[SiH](C)O1 (stereo unspecified) [2,4,6,8-tetramethyl-1,3,5,7,2,4,6,8-tetroxatetrasilocane]
Conditions | mass density [kg/m3]
[2] | 992.39

Cc1ccc(C)cc1 [1,4-dimethylbenzene]
Conditions | mass density [kg/m3]
[2] | 856.67

c1ccccc1 [benzene]
Conditions | mass density [kg/m3]
[2] | 873.57
